Consider 95 molecules from PubChem BioAssay AID1159559 (GlaxoSmithKline (GSK), 2015).

The source made the active and inactive calls.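 How the source made its calls: active means compounds whose IC50 against parasite growth in infected mouse cells is below 50000 nM; inactive means the rest.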 Where only a bound is given, the exact number is not on record here.

In the experiment the test system is T. cruzi Tulahuen in NIH-3T3, beta-gal fluorescence, 4 d. The experiment in a line: T. cruzi intracellular growth inhibition, cell-based (AID 1159559).

With `CC(C)(C)c1csc(NC(=O)c2ccc([N+](=O)[O-])s2)n1`, the IC50 (as a rule, the concentration at which inhibition is half-maximal) is 160 nM.
`CC(C(=O)Nc1ccc(Br)cc1)N1CCN(c2ccc([N+](=O)[O-])cc2)CC1` (stereo not given): the IC50 was 2500 nM.
For `COc1ccccc1C1CC(c2ccc(NS(C)(=O)=O)cc2)=NN1C(=O)c1cccs1` (stereo not given), the 50% inhibitory concentration (IC50) is 25000 nM.
On to `NC(=O)c1cc(F)ccc1Nc1nc(NC2CCC(O)CC2)ncc1Br` (stereo not given), for which the IC50 is 2500 nM.
Consider `CC(C)C[C@H](NC(=O)c1ccc(-c2ccccc2)o1)C(=O)NC1(C#N)CC1`, for which the IC50 is 32000 nM.
The value for `CCOc1ccc(N(C)S(=O)(=O)c2ccc3[nH]cc(C(=O)NC4CCCC4)c(=O)c3c2)cc1` was 7900 nM; that for `O=C1CSC(c2cccnc2)N1c1ccc(Cl)cc1Cl` (stereo not given) was 63 nM; that for `CCOc1cnn(C)c(=O)c1Nc1ccc(C(=O)NCc2ccc(F)cc2)cc1` was 250 nM.
For `O=C(Nc1nc2ccccc2[nH]1)c1ccc2nc[nH]c2c1` the value was 25000 nM.
For `COc1cnc2ccc(=O)n(CCN3CCC(NC(=O)c4ccc(Cl)cc4)CC3)c2c1` the value was 130 nM; for `O=C(Nc1n[nH]c(-c2ccccn2)n1)C1CC1c1ccccc1` (stereo not given), 16000 nM; for `Cc1cc(N(C)C)nc(Nc2ccccc2C)n1`, 1600 nM.
As to `CS(=O)(=O)c1ccccc1C(=O)N(Cc1ccccc1)c1ccccc1`, the IC50 was 50000 nM.
Turning to `O=C(CN(Cc1ccccn1)Cc1ccccn1)NCc1ccc2c(c1)OCO2`, the IC50 was 7900 nM.
For the molecule `COc1ccc(-c2nc3ncccc3o2)cc1NC(=O)c1cccs1`, the IC50 was 2000 nM.
As to `CCC(=O)Nc1ccccc1C(=O)Nc1ccccn1`, the IC50 is > 50000 nM (inactive).
Turning to `COc1ccc2ncc(=O)n(CCN3CCC(NCc4ccc(-c5cccs5)cc4)CC3)c2n1`, the IC50 is 2000 nM.
The value for `Cc1ccc(CNC2CCN(C[C@@H]3Cn4c(=O)ccc5ccc(=O)n3c54)CC2)cc1F` was 1300 nM; that for `N#Cc1nc(C=Cc2ccccc2)oc1NCc1cccnc1` was 250 nM.
As to `CN(CCOc1ccc(Cl)cc1)Cc1nc(N)nc(N(C)C)n1`, the IC50 is 5000 nM.
`CN(C)Cc1ccc(N2CCC(NS(=O)(=O)c3ccc(Cl)cc3)CC2)cc1`: the IC50 is 790 nM.
Turning to `CN(Cc1nnnn1C1CCN(Cc2ccc(-n3ccnc3)cc2)CC1)c1ccc(F)cc1F`, the IC50 is 320 nM.
The value for `COc1ccc(C2CC(c3ccccc3Cl)=NN2C(=O)CNC(=O)C2CCCC2)cc1` (stereo not given) was 3200 nM; that for `N#Cc1ccc(S(=O)(=O)N2CCN(Cc3cccc(-c4ccncc4)c3)CC2)cc1` was 400 nM.
Take `Oc1c(-c2n[nH]c(CCc3ccccc3)n2)ncc2cccnc12`: the IC50 is 200 nM.
As to `Nc1nc(-c2ccccc2)cc(-c2nc3ncccc3[nH]2)n1`, the IC50 is 3200 nM.
With `CCNc1cc(-c2ccccn2)nc(Nc2ccc(OC)cc2)n1`, the IC50 is 630 nM.
As to `Cc1nn(C2CCS(=O)(=O)C2)c(C)c1CN(C)C(=O)C=Cc1sc2ccccc2c1Cl` (stereo not given), the IC50 was 630 nM.
The value for `O=C1CN(Cc2ccco2)C2CS(=O)(=O)CC2N1c1ccc(Cl)cc1` (stereo not given) was > 50000 nM (inactive).
As to `N#Cc1cccc(Nc2nccc(N3CCC(NS(=O)(=O)c4cccc(C#N)c4)CC3)n2)c1`, the IC50 was 1600 nM.
For `CNc1cc(C)nc(C2CN(C(=O)c3n[nH]c4ccccc34)CCO2)c1` (stereo not given) the value was 1300 nM.
For `CN(Cc1ccc(F)cc1)c1ccc(OCC(=O)N2CCCCC2c2cccnc2)nn1` (stereo not given) the value was 320 nM; for `O=S1N=C(NCCCN(Cc2ccc(F)cc2)c2ccccn2)C(NCc2ccncc2)=N1` (stereo not given), 32000 nM; for `Cc1ccc(NC(=O)c2ccc(Cl)c(NC(=O)c3ccc([N+](=O)[O-])cc3)c2)cc1`, 630 nM.
With `NCc1ccc2c(Cl)cc(Cl)c(O)c2n1`, the IC50 was 2500 nM.
For `Cc1nc(N2CCC(C(=O)N3CCC(O)(c4cccnc4)CC3)CC2)nc2ccc(C(C)C)cc12` the value was 1600 nM; for `COc1ccc(-c2nc3ccncc3c(=O)n2CCOc2ccccc2)cc1`, 630 nM.
Regarding `COc1ccc2nccc([C@H](O)CN3CC[C@H](NC(=O)c4ccc(Br)cc4)[C@@H](O)C3)c2n1`, the IC50 is 250 nM.
The value for `Cc1nc(-c2ccc3c(c2)OCO3)sc1C(=O)NCc1ccc2c(c1)OCO2` was 3200 nM; that for `Cc1c(CNC(=O)c2ccc(Cn3cc(Cl)c([N+](=O)[O-])n3)cc2)cnn1C` was 1000 nM; that for `CC(C)(C)c1cc(NC2CC2)nc(-c2ccccn2)n1` was 1300 nM.
For the molecule `COc1cccc(C(=O)[C@H]2C[C@@H]2CN(Cc2ccccn2)Cc2ccccn2)c1`, the IC50 was 1300 nM.
Regarding `CN(C)Cc1cccc(Nc2nccc(-c3ccc(NCCN)c(C#N)c3)n2)c1`, the IC50 is 1000 nM.
With `COc1cc(Nc2nccc(Nc3onc(C)c3C)n2)cc(S(=O)(=O)C2CCOCC2)c1`, the IC50 is 6300 nM.
Regarding `Cc1cc2cc(CNc3ccc4c(c3)OCO4)c(=O)n(CCO)c2cc1C`, the IC50 was 630 nM.
Consider `CCN(Cc1ccncc1)Cc1ccc(NC(=O)c2cc(-c3ccc(F)cc3)n[nH]2)cc1`, for which the IC50 was 400 nM.
Regarding `CCOc1ccc(OCC(=O)N2c3ccccc3CC2C(=O)NC)cc1` (stereo not given), the IC50 is > 50000 nM (inactive).
In the case of `COc1cccc(NS(=O)(=O)c2ccc3[nH]cc(C(=O)NCCC(C)C)c(=O)c3c2)c1`, the IC50 was > 50000 nM (inactive).
As for `CCc1ccccc1[C@@H](C)NC(=O)c1cnc2c(cnn2CC)c1NC1CCN(C(N)=O)CC1`, the half-inhibitory concentration (IC50) was 25000 nM.
The value for `CCC(=O)Nc1ccc(-c2nc3ccc(Cl)cc3[nH]2)cc1` was 2000 nM; that for `c1ccc(CCNCc2cncc3nc(-c4cnccn4)n(C4CCCCC4)c23)cc1` was 320 nM; that for `CCc1ccc2nc(NC(=O)c3cc(N4CCOCC4)ccn3)sc2c1` was 2500 nM.
Regarding `N#Cc1cccc(CNc2ccc(-c3cnn(CC4CC4)c(=O)c3C#N)cc2)c1`, the IC50 was 5000 nM.
On to `COc1ccc(OC)c(NC(=O)c2ccc([N+](=O)[O-])o2)c1`, for which the IC50 is 3200 nM.
Turning to `O=C(CSc1ccc(F)cc1)N[C@@H](Cc1cnc[nH]1)C(=O)NCCc1ccccc1`, the 50% inhibitory concentration (IC50) was 400 nM.
For the molecule `CN(C)S(=O)(=O)c1cccc(C(=O)Nc2nc(-c3ccccn3)cs2)c1`, the IC50 was 1300 nM.
`Cc1cccc(NS(=O)(=O)c2ccc3c(c2)C(=O)c2cc(S(=O)(=O)Nc4cccc(C)c4C)ccc2-3)c1C`: the IC50 is 400 nM.
The value for `COc1ccc(C2CC(c3ccccc3Cl)=NN2C(=O)CNC(=O)C2CCC2)cc1` (stereo not given) was 2500 nM; that for `COc1ccccc1-c1c(C)[nH]c2nc(N)nc(C)c12` was 160 nM.
The value for `O=C(NCCc1ccccc1Cl)c1cccn1-c1cccnc1` was 400 nM; that for `COc1cnc2ccc(=O)n(CCN3CCC(NC/C=C/c4cc(F)ccc4F)CC3)c2c1` was 16 nM; that for `Cc1ccnc(NS(=O)(=O)c2ccc(NC(=O)c3ccc([N+](=O)[O-])s3)cc2)n1` was 2000 nM.
On to `COc1ccc2ncc(Cl)c(CCN3CC[C@H](NCc4cc5c(cn4)OCS5)[C@@H](O)C3)c2n1`, for which the half-inhibitory concentration (IC50) is 130 nM.
Take `Cc1cnc(Nc2cc(Cc3ccccc3)nc(NC3CCC(O)CC3)n2)s1` (stereo not given): the 50% inhibitory concentration (IC50) was 130 nM.
In the case of `COc1cc(-c2noc(CC#N)n2)ccc1OC(F)F`, the IC50 was 40000 nM.
The value for `CCN(CC)S(=O)(=O)c1ccc(OC)c(NC(=O)c2ccc([N+](=O)[O-])s2)c1` was 250 nM; that for `CC(C)S(=O)(=O)c1ccc(-c2cnc(N)c3cc(-c4ccnc(N)n4)ccc23)cc1` was 790 nM.
For `Cc1[nH]nc(C(F)(F)F)c1NC(=O)CCn1cc(Cl)c([N+](=O)[O-])n1` the value was 7900 nM; for `Cc1cn[nH]c1C1CCCN(Cc2nc3ccccc3n2C)C1` (stereo not given), 3200 nM; for `CC(=O)Nc1nc(-c2cc(C)ccc2C)c(C)s1`, 200 nM.
For `O=C(N[C@H](CO)c1ccccc1)c1ccc(-c2c[nH]c3nccc(C(F)(F)F)c23)s1` the value was 7900 nM; for `COc1ccc(-c2cc(C)no2)cc1S(=O)(=O)Nc1ccc(C)c(C)c1`, 5000 nM; for `O=C(NCCNc1noc(-c2ccc([N+](=O)[O-])cc2)n1)c1ccc(Cl)cc1`, 2000 nM.
As for `c1ccc(Nc2nc3ccccc3[nH]2)nc1`, the IC50 was 7900 nM.
As for `CC(C)n1c(-c2nonc2N)nc2cccc(OCCN3CCCC3)c21`, the IC50 is 10000 nM.
For the molecule `CC1=C(C(=O)Nc2ccc(Cl)cc2)C(c2ccncc2)n2ncc(C(=O)Nc3ccccc3)c2N1` (stereo not given), the IC50 is 20 nM.
For `Cn1ccnc1CN1CCc2[nH]cnc2C1c1ccccc1OCc1ccccc1` (stereo not given) the value was 40000 nM.
The value for `Cc1c(C(=O)NCCCCn2ccnc2)oc2c(C)cccc12` was 200 nM; that for `Cn1nccc1-c1cc(OC(CN)c2ccccc2)cnc1-c1ccco1` (stereo not given) was 400 nM; that for `CCCC(=O)N(Cc1ccccn1)c1nc2ccccc2s1` was 130 nM.
As for `O=C(NC1CCN(C2Cc3ccc(NS(=O)(=O)c4cc(F)cc(F)c4)cc3C2)CC1)C1CC1` (stereo not given), the IC50 is > 50000 nM (inactive).
In the case of `N#Cc1cc([N+](=O)[O-])ccc1NC1CCCCCC1`, the IC50 is 2500 nM.
For the molecule `Cc1c([N+](=O)[O-])c(C(=O)Nc2sc3c(c2C#N)CCC(C)C3)nn1C` (stereo not given), the IC50 is 2500 nM.
On to `c1cncc(CN(Cc2ccco2)Cc2cn[nH]c2-c2cccs2)c1`, for which the IC50 is 20 nM.
For the molecule `O=C(Nc1ccc(-c2nc3ccccc3c(=O)[nH]2)cc1)c1cccs1`, the IC50 is 3200 nM.
For `CCC(=O)N1N=C(c2ccc3c(c2)CCCC3)Sc2c1ncn2C(=O)CC` the value was 6300 nM.
As for `NS(=O)(=O)c1ccc(Nc2ncc3cccc(OC4CCNCC4)c3n2)cc1`, the IC50 is 1600 nM.
Regarding `COc1ccc(-c2csc(NC(=O)c3ccc([N+](=O)[O-])s3)n2)cc1OC`, the IC50 was 100 nM.
As for `CN(C(=O)Nc1ccc2c(c1)CCN(C1CCC1)CC2)c1ccc(C#N)cc1`, the IC50 was 2000 nM.
The value for `COc1ccc(NS(=O)(=O)c2cc(-c3cc(C)[nH]n3)ccc2C)cc1OC` was 1300 nM; that for `N#Cc1cccc(CN2CCC(c3nc(-c4ccc(C(F)(F)F)nc4)no3)CC2)c1` was 2000 nM.
With `O=C(CCCn1cnc([N+](=O)[O-])n1)Nc1cccc(Cl)c1`, the IC50 is 200 nM.
Turning to `O=C(Nc1nc2cc(Cl)ccc2o1)c1cccc(Cl)c1`, the IC50 was 790 nM.
With `O=C(CN(Cc1ccccn1)Cc1ccccn1)NCc1csc(-c2cccs2)n1`, the IC50 was 4000 nM.
Regarding `COCc1cc(Nc2ccccc2)nc(-c2ccccn2)n1`, the IC50 is 5000 nM.
